pIC50: −log10 of the molar value. Read-outs that look alike come from different tables or passages of the source.
Key:
CDK20/Cyclin H = CDK20/Cyclin H (Homo sapiens, UniProt Q8IZL9); assay: NanoBRET live-cell target engagement, NanoLuc-CDK20/Cyclin H in HEK-293; format: binding; conditions: CDK20/H
CDK14/Cyclin Y = CDK14/Cyclin Y (Homo sapiens, UniProt O94921); assay: NanoBRET live-cell target engagement, CDK14-NanoLuc/Cyclin Y in HEK-293; format: binding; conditions: CDK14/Y
CDK8/Cyclin C = CDK8/Cyclin C (Homo sapiens, UniProt P49336); assay: NanoBRET live-cell target engagement, NanoLuc-CDK8/Cyclin C in HEK-293; format: binding; conditions: CDK8/C; for pIC50: read-out: IC50
CDK18/Cyclin Y = CDK18/Cyclin Y (Homo sapiens, UniProt Q07002); assay: NanoBRET live-cell target engagement, CDK18-NanoLuc/Cyclin Y in HEK-293; format: binding; conditions: CDK18/Y
CDK6/Cyclin D1 = CDK6/Cyclin D1 (Homo sapiens, UniProt Q00534); assay: NanoBRET live-cell target engagement, NanoLuc-CDK6/Cyclin D1 in HEK-293; format: binding; conditions: CDK6/D1
CDK10/Cyclin L2 = CDK10/Cyclin L2 (Homo sapiens, UniProt Q15131); assay: NanoBRET live-cell target engagement, CDK10-NanoLuc/Cyclin L2 in HEK-293; conditions: CDK10/L2
CDK2/Cyclin E1 = CDK2/Cyclin E1 (Homo sapiens, UniProt P24941); assay: NanoBRET live-cell target engagement, CDK2-NanoLuc/Cyclin E1 in HEK-293; format: binding; conditions: CDK2/E1; for pIC50: read-out: IC50
CDK13/Cyclin K = CDK13/Cyclin K (Homo sapiens, UniProt Q14004); assay: NanoBRET live-cell target engagement, CDK13-NanoLuc/Cyclin K in HEK-293; format: binding; conditions: CDK13/K
CDK11B/Cyclin L2 = CDK11B/Cyclin L2 (Homo sapiens, UniProt P21127); assay: NanoBRET live-cell target engagement, CDK11B-NanoLuc/Cyclin L2 in HEK-293; format: binding; conditions: CDK11b/L2
CDK9/Cyclin K = CDK9/Cyclin K (Homo sapiens, UniProt P50750); assay: NanoBRET live-cell target engagement, NanoLuc-CDK9/Cyclin K in HEK-293; format: binding; conditions: CDK9/K
CDK5/CDK5R1 = CDK5/CDK5R1 (Homo sapiens, UniProt Q00535); assay: NanoBRET live-cell target engagement, CDK5-NanoLuc/CDK5R1 in HEK-293; format: binding; conditions: CDK5/CDK5R1; for pIC50: read-out: IC50
CDK17/Cyclin Y = CDK17/Cyclin Y (Homo sapiens, UniProt Q00537); assay: NanoBRET live-cell target engagement, CDK17-NanoLuc/Cyclin Y in HEK-293; format: binding; conditions: CDK17/Y
CDK1/Cyclin E1 = CDK1/Cyclin E1 (Homo sapiens, UniProt P06493); assay: NanoBRET live-cell target engagement, CDK1-NanoLuc/Cyclin E1 in HEK-293; format: binding; conditions: CDK1/E1; for pIC50: read-out: IC50
CDK11A/Cyclin L2 = biological target: T1, CDK11A/Cyclin L2 (Homo sapiens, UniProt Q9UQ88); assay: NanoBRET live-cell target engagement, CDK11A-NanoLuc/Cyclin L2 in HEK-293; format: binding; conditions: CDK11a/L2
T1 sequence (Q9UQ88 1-783): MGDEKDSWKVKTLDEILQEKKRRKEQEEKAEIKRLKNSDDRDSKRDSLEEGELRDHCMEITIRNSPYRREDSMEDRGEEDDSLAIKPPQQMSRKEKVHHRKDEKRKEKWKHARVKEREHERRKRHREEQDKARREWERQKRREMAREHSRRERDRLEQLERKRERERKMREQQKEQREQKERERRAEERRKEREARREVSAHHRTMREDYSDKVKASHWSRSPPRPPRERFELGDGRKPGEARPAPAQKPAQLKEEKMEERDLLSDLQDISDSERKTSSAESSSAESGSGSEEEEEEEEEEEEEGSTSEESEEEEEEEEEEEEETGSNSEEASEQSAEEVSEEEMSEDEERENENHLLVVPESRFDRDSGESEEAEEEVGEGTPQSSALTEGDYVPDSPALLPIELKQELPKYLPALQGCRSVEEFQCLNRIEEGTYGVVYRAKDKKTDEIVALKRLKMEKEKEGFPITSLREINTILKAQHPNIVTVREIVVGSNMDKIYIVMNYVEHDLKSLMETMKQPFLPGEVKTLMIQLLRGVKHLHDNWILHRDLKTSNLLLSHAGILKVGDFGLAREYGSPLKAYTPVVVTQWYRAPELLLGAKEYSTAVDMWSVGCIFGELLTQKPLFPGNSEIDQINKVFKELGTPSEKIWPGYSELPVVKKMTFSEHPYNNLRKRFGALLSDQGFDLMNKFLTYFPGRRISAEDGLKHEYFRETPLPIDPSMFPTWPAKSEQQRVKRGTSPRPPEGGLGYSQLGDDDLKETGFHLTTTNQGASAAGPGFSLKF

CDK15/Cyclin Y = CDK15/Cyclin Y (Homo sapiens, UniProt Q96Q40); assay: NanoBRET live-cell target engagement, NanoLuc-CDK15/Cyclin Y in HEK-293; format: binding; conditions: CDK15/Y
CDK4/Cyclin D1 = CDK4/Cyclin D1 (Homo sapiens, UniProt P11802); assay: NanoBRET live-cell target engagement, NanoLuc-CDK4/Cyclin D1 in HEK-293; format: binding; conditions: CDK4/D1
CDK16/Cyclin Y = CDK16/Cyclin Y (Homo sapiens, UniProt Q00536); assay: NanoBRET live-cell target engagement, CDK16-NanoLuc/Cyclin Y in HEK-293; format: binding; conditions: CDK16/Y
CDK7 = CDK7 (Homo sapiens, UniProt P50613); assay: NanoBRET live-cell target engagement, NanoLuc-CDK7 in HEK-293; format: binding; conditions: CDK7; for pIC50: read-out: IC50
CDK19/Cyclin C = CDK19/Cyclin C (Homo sapiens, UniProt Q9BWU1); assay: NanoBRET live-cell target engagement, NanoLuc-CDK19/Cyclin C in HEK-293; conditions: CDK19/C

CDK1/Cyclin E1, sequence (P06493 whole entry): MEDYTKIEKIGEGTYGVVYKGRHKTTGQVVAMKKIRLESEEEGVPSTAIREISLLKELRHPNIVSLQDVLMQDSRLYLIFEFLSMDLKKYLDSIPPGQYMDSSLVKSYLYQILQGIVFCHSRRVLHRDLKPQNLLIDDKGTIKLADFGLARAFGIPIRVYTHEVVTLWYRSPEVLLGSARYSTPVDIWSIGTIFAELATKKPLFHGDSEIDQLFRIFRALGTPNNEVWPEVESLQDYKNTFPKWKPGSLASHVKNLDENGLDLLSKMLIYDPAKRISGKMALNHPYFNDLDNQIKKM
CDK1/Cyclin E1, sequence (P24864 whole entry partner): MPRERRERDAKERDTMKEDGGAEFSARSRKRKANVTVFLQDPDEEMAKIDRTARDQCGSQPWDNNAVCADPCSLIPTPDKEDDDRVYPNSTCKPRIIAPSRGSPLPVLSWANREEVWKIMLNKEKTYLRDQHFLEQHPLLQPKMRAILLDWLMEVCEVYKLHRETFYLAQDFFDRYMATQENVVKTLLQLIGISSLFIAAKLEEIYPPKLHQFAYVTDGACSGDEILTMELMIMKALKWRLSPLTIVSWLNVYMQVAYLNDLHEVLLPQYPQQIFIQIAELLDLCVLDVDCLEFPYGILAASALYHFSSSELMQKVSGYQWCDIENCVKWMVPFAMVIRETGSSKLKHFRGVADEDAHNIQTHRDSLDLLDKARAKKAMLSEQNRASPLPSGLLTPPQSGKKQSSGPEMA
CDK11B/Cyclin L2, sequence (P21127 1-782 isoform P21127-2): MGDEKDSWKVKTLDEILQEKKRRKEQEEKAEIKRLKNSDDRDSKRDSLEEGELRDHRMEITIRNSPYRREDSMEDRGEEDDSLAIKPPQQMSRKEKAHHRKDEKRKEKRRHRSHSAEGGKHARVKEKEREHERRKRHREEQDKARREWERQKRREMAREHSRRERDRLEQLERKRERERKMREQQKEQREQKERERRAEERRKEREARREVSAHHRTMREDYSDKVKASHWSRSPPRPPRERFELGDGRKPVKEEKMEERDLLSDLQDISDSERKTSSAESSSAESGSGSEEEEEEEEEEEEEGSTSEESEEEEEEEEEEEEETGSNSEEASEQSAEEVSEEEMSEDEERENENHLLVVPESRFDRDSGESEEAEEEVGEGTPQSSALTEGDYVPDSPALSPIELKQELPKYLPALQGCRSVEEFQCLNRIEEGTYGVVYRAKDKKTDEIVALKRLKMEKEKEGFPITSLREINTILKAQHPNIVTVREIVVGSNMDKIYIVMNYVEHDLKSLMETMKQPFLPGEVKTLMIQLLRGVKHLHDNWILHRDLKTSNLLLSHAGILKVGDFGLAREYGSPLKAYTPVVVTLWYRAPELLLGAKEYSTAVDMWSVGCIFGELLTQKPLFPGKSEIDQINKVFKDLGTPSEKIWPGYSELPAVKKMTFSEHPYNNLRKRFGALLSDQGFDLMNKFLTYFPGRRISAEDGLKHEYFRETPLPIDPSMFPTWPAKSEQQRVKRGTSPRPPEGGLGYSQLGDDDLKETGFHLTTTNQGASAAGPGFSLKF
CDK18/Cyclin Y, sequence (Q07002 whole entry): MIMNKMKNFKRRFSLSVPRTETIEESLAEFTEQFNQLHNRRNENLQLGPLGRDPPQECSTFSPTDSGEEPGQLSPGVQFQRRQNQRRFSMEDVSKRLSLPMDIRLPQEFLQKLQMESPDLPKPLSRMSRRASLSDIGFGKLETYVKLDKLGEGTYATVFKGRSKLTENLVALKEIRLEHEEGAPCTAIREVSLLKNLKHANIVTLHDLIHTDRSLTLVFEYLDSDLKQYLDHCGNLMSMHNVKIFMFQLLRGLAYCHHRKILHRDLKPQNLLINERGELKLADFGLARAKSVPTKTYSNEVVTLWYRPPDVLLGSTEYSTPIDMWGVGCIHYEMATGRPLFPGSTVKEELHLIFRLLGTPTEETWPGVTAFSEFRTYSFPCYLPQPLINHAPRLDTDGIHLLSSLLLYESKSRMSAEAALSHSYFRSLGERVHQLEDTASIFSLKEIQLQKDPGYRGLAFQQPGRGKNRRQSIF
CDK18/Cyclin Y, sequence (Q8ND76 whole entry partner): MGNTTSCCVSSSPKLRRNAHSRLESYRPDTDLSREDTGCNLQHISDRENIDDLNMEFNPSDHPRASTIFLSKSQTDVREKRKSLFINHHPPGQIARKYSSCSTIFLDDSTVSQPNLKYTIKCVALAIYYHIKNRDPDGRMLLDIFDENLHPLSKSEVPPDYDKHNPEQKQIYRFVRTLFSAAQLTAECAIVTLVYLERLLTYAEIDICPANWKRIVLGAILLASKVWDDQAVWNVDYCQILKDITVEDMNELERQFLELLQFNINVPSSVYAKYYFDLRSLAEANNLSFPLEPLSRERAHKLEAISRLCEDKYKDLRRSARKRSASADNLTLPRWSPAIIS
CDK17/Cyclin Y, sequence (Q00537 whole entry): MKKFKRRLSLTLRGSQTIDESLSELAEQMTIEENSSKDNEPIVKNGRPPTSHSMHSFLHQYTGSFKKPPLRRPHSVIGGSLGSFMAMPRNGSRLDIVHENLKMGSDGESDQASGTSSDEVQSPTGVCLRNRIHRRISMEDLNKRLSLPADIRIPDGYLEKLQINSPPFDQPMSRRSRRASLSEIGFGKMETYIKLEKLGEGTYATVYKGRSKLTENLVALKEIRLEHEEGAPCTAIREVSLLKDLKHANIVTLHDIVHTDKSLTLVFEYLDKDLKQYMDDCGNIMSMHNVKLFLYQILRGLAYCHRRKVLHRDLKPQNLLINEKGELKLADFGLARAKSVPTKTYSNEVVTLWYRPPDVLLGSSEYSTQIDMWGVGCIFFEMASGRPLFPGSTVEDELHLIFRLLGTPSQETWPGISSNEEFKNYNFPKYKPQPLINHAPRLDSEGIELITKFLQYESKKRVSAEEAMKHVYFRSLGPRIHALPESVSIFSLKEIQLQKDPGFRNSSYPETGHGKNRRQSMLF
CDK17/Cyclin Y, sequence (Q8ND76 whole entry partner): as the sequence (Q8ND76 whole entry partner) above
CDK14/Cyclin Y, sequence (O94921 whole entry): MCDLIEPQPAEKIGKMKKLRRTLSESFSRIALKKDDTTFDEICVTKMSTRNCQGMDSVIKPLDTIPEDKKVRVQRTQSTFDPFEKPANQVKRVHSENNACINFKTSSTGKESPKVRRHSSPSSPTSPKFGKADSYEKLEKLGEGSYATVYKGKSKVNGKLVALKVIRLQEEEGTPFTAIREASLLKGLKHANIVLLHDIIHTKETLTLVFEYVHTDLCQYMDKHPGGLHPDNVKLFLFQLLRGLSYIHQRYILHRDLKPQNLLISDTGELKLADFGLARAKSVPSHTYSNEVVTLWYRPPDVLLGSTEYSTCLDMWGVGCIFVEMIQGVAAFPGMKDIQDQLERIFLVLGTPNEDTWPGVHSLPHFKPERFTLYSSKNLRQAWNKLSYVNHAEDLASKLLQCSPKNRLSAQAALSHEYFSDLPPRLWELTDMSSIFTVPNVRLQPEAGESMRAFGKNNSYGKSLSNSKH
CDK14/Cyclin Y, sequence (Q8ND76 whole entry partner): as the sequence (Q8ND76 whole entry partner) above
CDK15/Cyclin Y, sequence (Q96Q40 whole entry): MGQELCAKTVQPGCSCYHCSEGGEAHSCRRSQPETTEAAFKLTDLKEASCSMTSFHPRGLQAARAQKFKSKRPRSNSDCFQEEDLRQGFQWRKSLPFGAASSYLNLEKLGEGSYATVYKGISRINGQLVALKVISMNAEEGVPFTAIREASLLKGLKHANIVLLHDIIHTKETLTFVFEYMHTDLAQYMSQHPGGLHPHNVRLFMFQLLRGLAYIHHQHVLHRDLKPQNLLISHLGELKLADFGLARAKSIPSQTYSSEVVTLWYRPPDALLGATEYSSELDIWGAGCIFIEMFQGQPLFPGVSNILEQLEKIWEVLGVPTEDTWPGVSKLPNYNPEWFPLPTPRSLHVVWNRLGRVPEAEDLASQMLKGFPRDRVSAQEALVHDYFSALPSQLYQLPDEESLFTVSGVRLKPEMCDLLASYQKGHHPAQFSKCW
CDK15/Cyclin Y, sequence (Q8ND76 whole entry partner): as the sequence (Q8ND76 whole entry partner) above
CDK10/Cyclin L2, sequence (Q15131 whole entry): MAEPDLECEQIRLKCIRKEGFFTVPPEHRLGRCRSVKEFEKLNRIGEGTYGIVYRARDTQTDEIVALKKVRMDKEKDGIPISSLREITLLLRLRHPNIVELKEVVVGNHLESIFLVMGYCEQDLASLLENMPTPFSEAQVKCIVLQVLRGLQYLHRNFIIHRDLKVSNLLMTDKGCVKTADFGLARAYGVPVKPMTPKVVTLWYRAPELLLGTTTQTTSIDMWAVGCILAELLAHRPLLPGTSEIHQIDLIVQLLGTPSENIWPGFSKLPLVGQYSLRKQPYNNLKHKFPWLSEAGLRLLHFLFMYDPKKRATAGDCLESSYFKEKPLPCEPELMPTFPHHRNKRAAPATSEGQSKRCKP
CDK6/Cyclin D1, sequence (Q00534 whole entry): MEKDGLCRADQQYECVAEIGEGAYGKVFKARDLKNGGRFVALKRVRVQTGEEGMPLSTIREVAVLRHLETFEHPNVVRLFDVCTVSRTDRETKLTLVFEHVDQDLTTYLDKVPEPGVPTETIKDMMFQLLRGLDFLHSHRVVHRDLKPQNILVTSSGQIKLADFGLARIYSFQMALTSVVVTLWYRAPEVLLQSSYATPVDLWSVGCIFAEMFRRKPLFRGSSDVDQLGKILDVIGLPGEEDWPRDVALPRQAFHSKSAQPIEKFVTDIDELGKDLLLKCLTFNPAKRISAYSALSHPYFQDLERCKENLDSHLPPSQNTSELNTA
CDK6/Cyclin D1, sequence (P24385 whole entry partner): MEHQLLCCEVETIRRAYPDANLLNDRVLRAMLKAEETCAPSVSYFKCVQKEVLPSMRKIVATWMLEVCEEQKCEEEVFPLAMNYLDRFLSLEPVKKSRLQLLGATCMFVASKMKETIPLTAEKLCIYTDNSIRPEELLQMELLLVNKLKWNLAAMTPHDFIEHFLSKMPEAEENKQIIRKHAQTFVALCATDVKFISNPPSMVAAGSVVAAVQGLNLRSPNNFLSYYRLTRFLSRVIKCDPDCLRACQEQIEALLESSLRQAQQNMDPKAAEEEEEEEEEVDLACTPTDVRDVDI

## CCn1cnc2c(Nc3cccc(Cl)c3)nc(N[C@@H]3CCCC[C@@H]3N)nc21 [CGP74514A]
CDK20/Cyclin H; experiment 1
  Inhibition at 10µM (%): 40.4%
CDK20/Cyclin H; experiment 2
  Inhibition at 10µM (%): 47.3%
CDK14/Cyclin Y; average
  Inhibition at 10µM (%): 63.7%
CDK14/Cyclin Y; experiment 1
  Inhibition at 10µM (%): 59.7%
CDK14/Cyclin Y; experiment 2
  Inhibition at 10µM (%): 67.6%
CDK8/Cyclin C; average
  Inhibition at 10µM (%): 3.2%
CDK8/Cyclin C; average (± SEM where n=3)
  pIC50: 6.59
CDK8/Cyclin C; experiment 1
  Inhibition at 10µM (%): 5.8%
  pIC50: 6.54
CDK8/Cyclin C; experiment 2
  Inhibition at 10µM (%): 0.659%
  pIC50: 6.64
CDK18/Cyclin Y; average
  Inhibition at 10µM (%): 86.9%
CDK18/Cyclin Y; experiment 1
  Inhibition at 10µM (%): 81.1%
CDK18/Cyclin Y; experiment 2
  Inhibition at 10µM (%): 92.6%
CDK6/Cyclin D1; average
  Inhibition at 10µM (%): 58.7%
CDK6/Cyclin D1; experiment 1
  Inhibition at 10µM (%): 51.0%
CDK6/Cyclin D1; experiment 2
  Inhibition at 10µM (%): 66.5%
CDK10/Cyclin L2; average
  Inhibition at 10µM (%): 40.2%
CDK10/Cyclin L2; experiment 1
  Inhibition at 10µM (%): 37.4%
CDK10/Cyclin L2; experiment 2
  Inhibition at 10µM (%): 42.9%
CDK2/Cyclin E1; average
  Inhibition at 10µM (%): 94.2%
CDK2/Cyclin E1; average (± SEM where n=3)
  pIC50: 7.21
CDK2/Cyclin E1; experiment 1
  Inhibition at 10µM (%): 93.3%
  pIC50: 7.20
CDK2/Cyclin E1; experiment 2
  Inhibition at 10µM (%): 95.2%
  pIC50: 7.22
CDK13/Cyclin K; average
  Inhibition at 10µM (%): 35.2%
CDK13/Cyclin K; experiment 1
  Inhibition at 10µM (%): 36.4%
CDK13/Cyclin K; experiment 2
  Inhibition at 10µM (%): 33.9%
CDK11B/Cyclin L2; average
  Inhibition at 10µM (%): 21.5%
CDK11B/Cyclin L2; experiment 1
  Inhibition at 10µM (%): 20.4%
CDK11B/Cyclin L2; experiment 2
  Inhibition at 10µM (%): 22.7%
CDK9/Cyclin K; average
  Inhibition at 10µM (%): 71.1%
CDK9/Cyclin K; experiment 1
  Inhibition at 10µM (%): 68.0%
CDK9/Cyclin K; experiment 2
  Inhibition at 10µM (%): 74.2%
CDK5/CDK5R1; average
  Inhibition at 10µM (%): 93.3%
CDK5/CDK5R1; average (± SEM where n=3)
  pIC50: 7.00
CDK5/CDK5R1; experiment 1
  Inhibition at 10µM (%): 90.4%
  pIC50: 7.13
CDK5/CDK5R1; experiment 2
  Inhibition at 10µM (%): 96.2%
  pIC50: 6.89
CDK17/Cyclin Y; average
  Inhibition at 10µM (%): 80.2%
CDK17/Cyclin Y; experiment 1
  Inhibition at 10µM (%): 79.4%
CDK17/Cyclin Y; experiment 2
  Inhibition at 10µM (%): 81.0%
CDK1/Cyclin E1; average
  Inhibition at 10µM (%): 78.9%
CDK1/Cyclin E1; average (± SEM where n=3)
  pIC50: 6.89
CDK1/Cyclin E1; experiment 1
  Inhibition at 10µM (%): 77.7%
  pIC50: 7.00
CDK1/Cyclin E1; experiment 2
  Inhibition at 10µM (%): 80.1%
  pIC50: 6.79
CDK11A/Cyclin L2; average
  Inhibition at 10µM (%): 29.9%
CDK11A/Cyclin L2; experiment 1
  Inhibition at 10µM (%): 16.5%
CDK11A/Cyclin L2; experiment 2
  Inhibition at 10µM (%): 43.3%
CDK15/Cyclin Y; average
  Inhibition at 10µM (%): 85.2%
CDK15/Cyclin Y; experiment 1
  Inhibition at 10µM (%): 84.1%
CDK15/Cyclin Y; experiment 2
  Inhibition at 10µM (%): 86.4%
CDK4/Cyclin D1; average
  Inhibition at 10µM (%): 72.2%
CDK4/Cyclin D1; experiment 1
  Inhibition at 10µM (%): 63.2%
CDK4/Cyclin D1; experiment 2
  Inhibition at 10µM (%): 81.2%
CDK16/Cyclin Y; experiment 1
  Inhibition at 10µM (%): 76.4%
CDK16/Cyclin Y; experiment 2
  Inhibition at 10µM (%): 76.7%
CDK7; average
  Inhibition at 10µM (%): 93.3%
CDK7; average (± SEM where n=3)
  pIC50: 7.02
CDK7; experiment 1
  Inhibition at 10µM (%): 96.5%
  pIC50: 7.00
CDK7; experiment 2
  Inhibition at 10µM (%): 90.2%
  pIC50: 7.05
CDK19/Cyclin C; average
  Inhibition at 10µM (%): 9.3%
CDK19/Cyclin C; experiment 1
  Inhibition at 10µM (%): 26.1%
CDK19/Cyclin C; experiment 2
  Inhibition at 10µM (%): -7.5%
